Assay results from article PMC12016430 (The Journal of Headache and Pain, 2025).

Experiments:
Assay in all cases: competitive gel-based ABPP
Type in all cases: cell-based
MAGL = target: T1, MAGL (Rattus norvegicus, UniProt Q8R431)
T1 sequence (Q8R431 1-303): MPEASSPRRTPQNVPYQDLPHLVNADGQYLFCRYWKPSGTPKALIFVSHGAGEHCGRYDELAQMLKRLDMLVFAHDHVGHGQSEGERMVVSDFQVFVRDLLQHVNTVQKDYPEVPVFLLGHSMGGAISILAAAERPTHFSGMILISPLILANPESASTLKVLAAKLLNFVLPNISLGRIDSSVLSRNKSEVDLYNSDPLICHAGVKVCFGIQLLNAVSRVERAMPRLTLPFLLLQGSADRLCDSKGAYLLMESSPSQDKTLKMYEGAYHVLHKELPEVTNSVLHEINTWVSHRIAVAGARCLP

FAAH = target: T2, FAAH (Rattus norvegicus, UniProt P97612)
T2 sequence (P97612 1-579): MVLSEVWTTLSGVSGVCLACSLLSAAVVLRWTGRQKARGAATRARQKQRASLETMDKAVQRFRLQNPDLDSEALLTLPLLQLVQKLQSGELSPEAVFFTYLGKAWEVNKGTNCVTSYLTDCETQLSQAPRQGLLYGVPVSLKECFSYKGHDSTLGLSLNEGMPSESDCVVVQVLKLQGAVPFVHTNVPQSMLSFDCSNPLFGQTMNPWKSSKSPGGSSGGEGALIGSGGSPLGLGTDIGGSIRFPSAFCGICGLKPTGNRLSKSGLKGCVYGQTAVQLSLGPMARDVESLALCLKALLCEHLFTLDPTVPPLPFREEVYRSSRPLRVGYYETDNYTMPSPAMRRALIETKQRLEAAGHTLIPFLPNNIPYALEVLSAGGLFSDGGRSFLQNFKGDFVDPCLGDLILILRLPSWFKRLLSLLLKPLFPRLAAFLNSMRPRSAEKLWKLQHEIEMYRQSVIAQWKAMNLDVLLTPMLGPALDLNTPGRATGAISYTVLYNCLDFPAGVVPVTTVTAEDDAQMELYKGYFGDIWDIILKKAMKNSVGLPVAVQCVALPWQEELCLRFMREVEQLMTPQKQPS

ABHD6 = target: T3, ABHD6 (Rattus norvegicus, UniProt Q5XI64)
T3 sequence (Q5XI64 1-337): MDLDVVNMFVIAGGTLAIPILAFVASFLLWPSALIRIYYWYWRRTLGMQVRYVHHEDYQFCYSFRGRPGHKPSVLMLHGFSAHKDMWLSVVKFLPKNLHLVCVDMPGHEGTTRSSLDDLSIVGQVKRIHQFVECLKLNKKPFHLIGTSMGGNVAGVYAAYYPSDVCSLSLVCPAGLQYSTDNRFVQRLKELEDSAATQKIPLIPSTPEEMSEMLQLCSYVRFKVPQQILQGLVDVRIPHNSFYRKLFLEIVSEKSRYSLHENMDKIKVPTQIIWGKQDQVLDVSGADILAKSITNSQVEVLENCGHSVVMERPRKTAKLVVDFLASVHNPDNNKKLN

## O=C(N1CCN(C(c2ccccc2)c2ccccc2)CC1)n1cncn1 [AKU-005]
MAGL
  % inhibition at 100 nM: 79
FAAH
  % inhibition at 100 nM: 79
ABHD6
  % inhibition at 100 nM: 30
